Measurements reported in US20230094545A1, “S1P RECEPTOR MODULATORS” (AKAAL PHARMA PTY LTD, priority 2020, published 2023).

Legend:
[1] = Solubility in water / precipitation in buffer; type: physicochemical
Description: To solubilize the free base in water the novel technology AvignaSOL (N,N-Dimethyl hexanamide; patent number: U.S. Pat. No. 9,186,338B2) and its higher derivatives such as octinamide, decamide which improve the absorption of various poorly soluble drugs was used. AvignaSOL as 1-70% ww % assisted the solubilization of free base as 1 gm/20 mL of water. The solubility of free base in water assisted its direct use in various formulation such as creams, gels, solutions which together with the permeation enhancing effect will be harnessed to improve skin penetration and/or bioavailability and in altering the pharmacokinetics and pharmacodynamics profile of free base.
The AvignaSOL having a log P of ˜1.6 hinder the release by increasing the hydrophobicity of the delivery system. […] The combination of compound of formula I with other ingredients including sustained release enhancer with or without AvignaSOL were prepared as novel formulation techniques to improve and/or alter the pharmacokinetics and pharmacodynamics profile of compound of Formula I.

S1P1 receptor [2] = target: T1, S1P1 receptor (Homo sapiens, UniProt P21453); details: cited from earlier work; for activity v/s degradation margin: known S1P receptor modulators; for receptor degradation ability: Lucas et al
T1 sequence (P21453 whole entry): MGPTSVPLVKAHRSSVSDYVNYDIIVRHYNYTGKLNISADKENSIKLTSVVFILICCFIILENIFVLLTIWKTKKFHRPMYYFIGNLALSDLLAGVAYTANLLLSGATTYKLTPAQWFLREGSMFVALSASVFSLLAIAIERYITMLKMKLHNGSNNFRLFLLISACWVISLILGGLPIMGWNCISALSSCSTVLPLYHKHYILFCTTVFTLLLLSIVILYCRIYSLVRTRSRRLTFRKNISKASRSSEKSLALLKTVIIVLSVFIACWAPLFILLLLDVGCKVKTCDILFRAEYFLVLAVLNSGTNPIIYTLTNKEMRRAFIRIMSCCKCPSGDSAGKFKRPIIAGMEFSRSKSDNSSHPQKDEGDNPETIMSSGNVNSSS

[3] = single dose, 2 mg or lower doses; cited from earlier work
[4] = cited from earlier work
S1P1 receptor [5] = target: T1, S1P1 receptor; details: Lucas et al; read-out: EC50 at S1P1 receptor in a GTPγS assay; cited from earlier work
EAE = assay: Animal model of multiple sclerosis (EAE induced with guinea pig MBP); type: in vivo, Lewis rats; details: EAE rats, oral every day until day 26
Description: The oral treatment with a compound of formula (I) was conducted in an animal model of multiple sclerosis. EAE was induced in female Lewis rats with guinea pig MBP (25 μg/rat).

CCCOc1ccc(-c2nc(-c3ccc4oc(C(N)(CO)CO)cc4c3)no2)cc1Cl [compound of formula I free base]
solubility in water [1]: insoluble in water

CCC/N=C1\S/C(=C\c2ccc(OC[C@H](O)CO)c(Cl)c2)C(=O)N1c1ccccc1C [Ponesimod]
activity v/s degradation margin (S1P1 receptor [2]): < 2

CC(C)Oc1ncc(-c2nc(-c3cccc4c3ccn4CCCC(=O)O)no2)cc1Cl [GSK2018682]
lymphopenia [3]: minimal or no lymphopenia | reduction in heart rate [3]: ≥ 10 beats

CCCCCC(=O)N(C)C [AvignaSOL, N,N-Dimethyl hexanamide]
log P [4]: ~1.6

CCc1cc(/C(C)=N/OCc2ccc(C3CCCCC3)c(C(F)(F)F)c2)ccc1CN1CC(C(=O)O)C1 [BAF-312]
activity v/s degradation margin (S1P1 receptor [2]): 2.95

CCCCCCCCCCCCC/C=C/[C@@H](O)[C@@H](N)COP(=O)(O)O [S1P]
EC50 (S1P1 receptor [5]): 1.2 nM | receptor degradation ability (S1P1 receptor [2]): 302 nM

CCCCCCCCc1ccc(CCC(N)(CO)CO)cc1 [FTY720]
lymphopenia (EAE): induced at a high level over a long-term period | receptor degradation ability (S1P1 receptor [2]): 0.34 nM | activity v/s degradation margin (S1P1 receptor [2]): 0.17
